Test results published in publication PMC10734298 (ACS Omega, 2023).
Like-named read-outs stand apart in the source and are kept apart here.

What was measured:
[1] = test system: A/Vladivostok/2/09 (H1N1); assay: microbe, parasite or virus in culture; type: cell-based, influenza A virus; settings: for EC50: Influenza A virus, H1N1, MDCK
A/Almaty/8/98(H3N2) [2] = assay: microbe, parasite or virus in culture; type: cell-based, influenza A virus; settings: for EC50: Influenza A virus, H3N2, MDCK
[3] = test system: A/Tern/South Africa/1/61(H5N3); assay: microbe, parasite or virus in culture; type: cell-based, influenza A virus; settings: for EC50: Influenza A virus, H5N3, MDCK
A/Almaty/8/98(H3N2) [4] = assay: animal or person; type: in vivo, influenza A virus; settings: for EC50: Influenza A virus, H3N2
[5] = test system: A/Tern/South Africa/1/61(H5N3); assay: animal or person; type: in vivo, influenza A virus; settings: for EC50: Influenza A virus, H5N3
[6] = test system: A/Vladivostok/2/09 (H1N1); design: species or system influenza A virus
A/Almaty/8/98(H3N2) [7] = test system: A/Almaty/8/98(H3N2); design: species or system influenza A virus
[8] = test system: A/Tern/South Africa/1/61 (H5N3); design: species or system influenza A virus
[9] = test system: A/chicken/FPV/Rostock/1934 (H7N1); design: species or system influenza A virus
[10] = test system: A/Vladivostok/2/09 (H1N1); type: biochemical, influenza A virus; settings: read-out: Hemagglutination Inhibition Concentration 50 (HIC50)
A/Almaty/8/98(H3N2) [11] = type: biochemical, influenza A virus; settings: read-out: Hemagglutination Inhibition Concentration 50 (HIC50)
[12] = test system: A/Tern/South Africa/1/61 (H5N3); type: biochemical, influenza A virus; settings: read-out: Hemagglutination Inhibition Concentration 50 (HIC50)
[13] = test system: A/chicken/FPV/Rostock/1934 (H7N1); type: biochemical, influenza A virus; settings: read-out: Hemagglutination Inhibition Concentration 50 (HIC50)
[14] = target: NA of A/Tern/South Africa/1/61 (H5N3) (Influenza A virus, UniProt Q6XV52); assay: biochemical
Sequence of NA of A/Tern/South Africa/1/61 (H5N3) (Q6XV52 whole entry, looked up): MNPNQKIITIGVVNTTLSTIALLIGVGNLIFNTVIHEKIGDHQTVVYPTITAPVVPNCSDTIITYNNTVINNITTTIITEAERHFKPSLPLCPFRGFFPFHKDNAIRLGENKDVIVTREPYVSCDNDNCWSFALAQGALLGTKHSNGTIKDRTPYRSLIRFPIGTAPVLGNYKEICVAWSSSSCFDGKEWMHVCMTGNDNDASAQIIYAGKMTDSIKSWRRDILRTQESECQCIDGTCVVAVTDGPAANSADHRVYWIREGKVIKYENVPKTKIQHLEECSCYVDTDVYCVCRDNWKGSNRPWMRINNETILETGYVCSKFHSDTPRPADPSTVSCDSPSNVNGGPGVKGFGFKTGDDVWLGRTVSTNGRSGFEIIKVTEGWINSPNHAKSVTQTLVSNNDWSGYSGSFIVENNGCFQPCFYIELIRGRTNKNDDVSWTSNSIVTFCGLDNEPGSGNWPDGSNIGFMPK

[15] = target: NA of A/chicken/FPV/Rostock/1934 (H7N1) (Influenza A virus, UniProt Q64968); type: biochemical; settings: read-out: Neuraminidase Inhibition Concentration 50 (NIC50)
Sequence of NA of A/chicken/FPV/Rostock/1934 (H7N1) (Q64968 whole entry, looked up): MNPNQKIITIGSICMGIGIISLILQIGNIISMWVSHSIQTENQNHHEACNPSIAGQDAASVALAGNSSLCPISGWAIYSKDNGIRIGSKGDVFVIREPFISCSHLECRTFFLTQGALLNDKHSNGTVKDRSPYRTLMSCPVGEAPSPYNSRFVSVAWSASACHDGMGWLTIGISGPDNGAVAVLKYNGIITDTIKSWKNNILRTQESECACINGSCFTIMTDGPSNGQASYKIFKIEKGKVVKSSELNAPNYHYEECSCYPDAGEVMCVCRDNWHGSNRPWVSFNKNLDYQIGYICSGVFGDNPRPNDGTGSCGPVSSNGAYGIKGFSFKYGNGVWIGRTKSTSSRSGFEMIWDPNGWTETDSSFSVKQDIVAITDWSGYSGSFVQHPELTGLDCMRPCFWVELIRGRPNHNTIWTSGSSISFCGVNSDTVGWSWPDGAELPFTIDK

[16] = test system: influenza virus (all tested viruses); assay: microbe, parasite or virus in culture; type: cell-based, influenza A virus; settings: unidentified influenza virus, MDCK, read-out: EC50 value
[17] = test system: NA protein of panel of viruses; assay: NA inhibition assay, whole virus panel; type: biochemical, influenza A virus; settings: read-out: concentrations inhibiting the NA activity; range over panel viruses
Toxicity in MDCK cells = settings: dog
[18] = Toxicity in fertilized chicken eggs; settings: in vivo, other: inoculated into the allantoic cavity
[19] = test system: A/chicken/FPV/Rostock/1934(H7N1); type: cell-based, influenza A virus
[20] = test system: A/Vladivostok/2/09 (H1N1); assay: animal or person; type: in vivo; settings: Influenza A virus
[21] = test system: A/chicken/FPV/Rostock/1934(H7N1); design: species or system influenza A virus; settings: in vivo

`CCOC(=O)C1=C[C@@H](OC(CC)CC)[C@H](NC(C)=O)[C@@H](N)C1` [oseltamivir] gave an EC50 [1] of 9.091 ± 0.04 µM, an EC50 (A/Almaty/8/98(H3N2) [2]) of 1.33 ± 0.028 µM and an EC50 [3] of 1.65 ± 0.027 µM. For the same compound, the EC50 (A/Almaty/8/98(H3N2) [4]) was 1.33 ± 0.028 µM, the EC50 [5] was 1.65 ± 0.027 µM and the “Virus Titer Reduction Factor (VTRF)” value [6] was 1.0 ± 0.02. The “Virus Titer Reduction Factor (VTRF)” value (A/Almaty/8/98(H3N2) [7]) was 1.0 ± 0.02, the “Virus Titer Reduction Factor (VTRF)” value [8] was 1.0 ± 0.01 and the “Virus Titer Reduction Factor (VTRF)” value [9] was 1.0 ± 0.02. For the same compound, the IC50 [10] was 155 ± 5.1 µM, the IC50 (A/Almaty/8/98(H3N2) [11]) was 145 ± 6.6 µM and the IC50 [12] was 155 ± 2 µM. It also gave an IC50 [13] of 135 ± 6.6 µM, an IC50 [14] of 20.3 ± 0.5 µM and an IC50 [15] of 6.1 ± 0.2 µM. For the same compound, the EC50 [16] was 1.3 to 9.1 µM, the IC50 [17] was 4 to 20.3 µM and the CC50 at 48 h (Toxicity in MDCK cells) was > 100 µM. The CC50 at 5 days [18] was > 150 µM.
For `COc1cc(-c2oc3cc(O)cc(O)c3c(=O)c2O)ccc1O` [isorhamnetin], the SI [1] was >5.0, the EC50 [1] was 56 ± 0.45 µM and the SI (A/Almaty/8/98(H3N2) [2]) was >10.0. For the same compound, the EC50 (A/Almaty/8/98(H3N2) [2]) was 28 ± 0.34 µM, the SI [3] was >7.9 and the EC50 [3] was 35.4 ± 0.18 µM. For the same compound, the SI [19] was >8.1, the EC50 [20] was 56 ± 0.45 µM and the EC50 (A/Almaty/8/98(H3N2) [4]) was 28 ± 0.34 µM. The SI (A/Almaty/8/98(H3N2) [4]; in vivo) was >15, the EC50 [5] was 35.4 ± 0.18 µM and the SI ([5]; in vivo) was >12.0. The SI [21] was >12.1, the “Virus Titer Reduction Factor (VTRF)” value [6] was 1.5 ± 0.02 and the “Virus Titer Reduction Factor (VTRF)” value (A/Almaty/8/98(H3N2) [7]) was 1.5 ± 0.02. For the same compound, the “Virus Titer Reduction Factor (VTRF)” value [8] was 1.9 ± 0.02, the “Virus Titer Reduction Factor (VTRF)” value [9] was 1.5 ± 0.02 and the IC50 [10] was 156 ± 2 µM. The IC50 (A/Almaty/8/98(H3N2) [11]) was 50.5 ± 0.45 µM, the IC50 [12] was 39.3 ± 0.7 µM and the IC50 [13] was 48.2 ± 1.7 µM. For the same compound, the IC50 [14] was 370 ± 7.5 µM, the IC50 [15] was 68.2 ± 1.2 µM and the EC50 [16] was 28 to 56 µM. For the same compound, the CC50 at 48 h (Toxicity in MDCK cells) was > 280 µM and the CC50 at 5 days [18] was > 420 µM.
